Reference: PubChem BioAssay (NCI)
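96-well plates; 48 h exposure; 5 concentrations. Endpoints by linear interpolation between flanking doses. Not reached: highest tested concentration assigned. GI50 is the concentration that inhibits growth by half. TGI denotes the concentration required for complete inhibition of growth.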

test system: RXF 393 renal; assay: NCI-60 cell line screen, 48 h

`CCOC(CCNCC(OCC)OCC)OCC` and `CC1=CC(/C=C(\C)CCCc2ccoc2)C2(OC(=O)C(C)=C2O)[C@H]2C1CC[C@@H]2C` (stereo partly drawn) cannot be ordered by TGI: > 10 µM for the first, 60.5 µM for the second.

`O=C(O/N=C1/CCCC/C1=C\c1ccccc1)c1ccccc1` was tested, and the TGI was > 100 µM.

test system: MDA-N; assay: NCI-60 cell line screen, 48 h

First: COc1cc(C2c3cc4c(cc3OC(N3CCCC3)C2C)OCO4)cc(OC)c1O (stereo not drawn)
Second: CCOC(CCNCC(OCC)OCC)OCC
The TGI of the first is lower: 6.17 µM for the first, > 10 µM for the second.

test system: KM12 colon; assay: NCI-60 cell line screen, 48 h

`COc1cc(C2c3cc4c(cc3OC(N3CCCC3)C2C)OCO4)cc(OC)c1O` (stereo not drawn) and `CC1=CC(/C=C(\C)CCCc2ccoc2)C2(OC(=O)C(C)=C2O)[C@H]2C1CC[C@@H]2C` (stereo partly drawn) cannot be ordered by TGI: > 100 µM for the first, > 100 µM for the second.

Compared with `COC(=O)C1=C(C)N(NC(=O)c2ccccc2)C(C)(O)C12CCOC2=O` (stereo not drawn), `CCC[CH2][Ge]([CH2]CCC)([CH2]CCC)[O]C(=O)CC(=O)c1ccccc1` is lower in TGI: > 100 µM for the first, 16 µM for the second.

`CCOC(CCNCC(OCC)OCC)OCC` and `O=C(O/N=C1/CCCC/C1=C\c1ccccc1)c1ccccc1` cannot be ordered by TGI: > 10 µM for the first, > 100 µM for the second.

Compound `CCC[CH2][Ge]([CH2]CCC)([CH2]CCC)[O]C(=O)CC(=O)c1ccccc1` has a GI50 of 0.883 µM.

test system: HCT-116 colon; assay: NCI-60 cell line screen, 48 h

Compared with `COc1cc(C2c3cc4c(cc3OC(N3CCCC3)C2C)OCO4)cc(OC)c1O` (stereo not drawn), `CC1=CC(/C=C(\C)CCCc2ccoc2)C2(OC(=O)C(C)=C2O)[C@H]2C1CC[C@@H]2C` (stereo partly drawn) is lower in TGI: > 100 µM for the first, 38.1 µM for the second.

Going from `COC(=O)C1=C(C)N(NC(=O)c2ccccc2)C(C)(O)C12CCOC2=O` (stereo not drawn) to `CCC[CH2][Ge]([CH2]CCC)([CH2]CCC)[O]C(=O)CC(=O)c1ccccc1`, the TGI falls from > 100 µM to 12.3 µM.

`CCOC(CCNCC(OCC)OCC)OCC` and `O=C(O/N=C1/CCCC/C1=C\c1ccccc1)c1ccccc1` cannot be ordered by TGI: > 10 µM for the first, > 100 µM for the second.

Work on `CCC[CH2][Ge]([CH2]CCC)([CH2]CCC)[O]C(=O)CC(=O)c1ccccc1` yielded a GI50 of 0.191 µM.

test system: OVCAR-5 ovarian; assay: NCI-60 cell line screen, 48 h

`COc1cc(C2c3cc4c(cc3OC(N3CCCC3)C2C)OCO4)cc(OC)c1O` (stereo not drawn) and `COC(=O)C1=C(C)N(NC(=O)c2ccccc2)C(C)(O)C12CCOC2=O` (stereo not drawn) cannot be ordered by TGI: > 100 µM for the first, > 100 µM for the second.

Compared with `CCC[CH2][Ge]([CH2]CCC)([CH2]CCC)[O]C(=O)CC(=O)c1ccccc1`, `O=C(O/N=C1/CCCC/C1=C\c1ccccc1)c1ccccc1` is higher in TGI: 14.9 µM for the first, > 100 µM for the second.

In the case of `CCOC(CCNCC(OCC)OCC)OCC`, the TGI was > 10 µM.

In the case of `CCC[CH2][Ge]([CH2]CCC)([CH2]CCC)[O]C(=O)CC(=O)c1ccccc1`, the GI50 was 2.17 µM.

test system: SK-OV-3 ovarian; assay: NCI-60 cell line screen, 48 h

`COc1cc(C2c3cc4c(cc3OC(N3CCCC3)C2C)OCO4)cc(OC)c1O` (stereo not drawn) and `CC1=CC(/C=C(\C)CCCc2ccoc2)C2(OC(=O)C(C)=C2O)[C@H]2C1CC[C@@H]2C` (stereo partly drawn) are within 1.5-fold of each other in TGI: 62.4 µM for the first, 69 µM for the second.

Compared with `COC(=O)C1=C(C)N(NC(=O)c2ccccc2)C(C)(O)C12CCOC2=O` (stereo not drawn), `CCC[CH2][Ge]([CH2]CCC)([CH2]CCC)[O]C(=O)CC(=O)c1ccccc1` is lower in TGI: > 100 µM for the first, 14 µM for the second.

`CCOC(CCNCC(OCC)OCC)OCC` and `O=C(O/N=C1/CCCC/C1=C\c1ccccc1)c1ccccc1` cannot be ordered by TGI: > 10 µM for the first, > 100 µM for the second.

In the case of `CCC[CH2][Ge]([CH2]CCC)([CH2]CCC)[O]C(=O)CC(=O)c1ccccc1`, the GI50 was 0.667 µM.

test system: HCC-2998 colon; assay: NCI-60 cell line screen, 48 h

First: COc1cc(C2c3cc4c(cc3OC(N3CCCC3)C2C)OCO4)cc(OC)c1O (stereo not drawn)
Second: CC1=CC(/C=C(\C)CCCc2ccoc2)C2(OC(=O)C(C)=C2O)[C@H]2C1CC[C@@H]2C (stereo partly drawn)
The TGI of the first is higher: > 94.3 µM for the first, 74.2 µM for the second.

First: COC(=O)C1=C(C)N(NC(=O)c2ccccc2)C(C)(O)C12CCOC2=O (stereo not drawn)
Second: CCC[CH2][Ge]([CH2]CCC)([CH2]CCC)[O]C(=O)CC(=O)c1ccccc1
The TGI of the first is higher: > 100 µM for the first, 6.16 µM for the second.

`CCOC(CCNCC(OCC)OCC)OCC` and `O=C(O/N=C1/CCCC/C1=C\c1ccccc1)c1ccccc1` cannot be ordered by TGI: > 10 µM for the first, > 100 µM for the second.

With `CCC[CH2][Ge]([CH2]CCC)([CH2]CCC)[O]C(=O)CC(=O)c1ccccc1` the GI50 was 1.3 µM.

test system: T-47D breast; assay: NCI-60 cell line screen, 48 h

`COc1cc(C2c3cc4c(cc3OC(N3CCCC3)C2C)OCO4)cc(OC)c1O` (stereo not drawn) and `CCOC(CCNCC(OCC)OCC)OCC` cannot be ordered by TGI: > 100 µM for the first, > 10 µM for the second.

test system: SNB-78 CNS; assay: NCI-60 cell line screen, 48 h

Compared with `COC(=O)C1=C(C)N(NC(=O)c2ccccc2)C(C)(O)C12CCOC2=O` (stereo not drawn), `CC1=CC(/C=C(\C)CCCc2ccoc2)C2(OC(=O)C(C)=C2O)[C@H]2C1CC[C@@H]2C` (stereo partly drawn) is lower in TGI: > 100 µM for the first, 85.2 µM for the second.

test system: HCT-15 colon; assay: NCI-60 cell line screen, 48 h

First: COc1cc(C2c3cc4c(cc3OC(N3CCCC3)C2C)OCO4)cc(OC)c1O (stereo not drawn)
Second: CC1=CC(/C=C(\C)CCCc2ccoc2)C2(OC(=O)C(C)=C2O)[C@H]2C1CC[C@@H]2C (stereo partly drawn)
The TGI of the first is higher: > 100 µM for the first, 39.8 µM for the second.

Going from `COC(=O)C1=C(C)N(NC(=O)c2ccccc2)C(C)(O)C12CCOC2=O` (stereo not drawn) to `CCC[CH2][Ge]([CH2]CCC)([CH2]CCC)[O]C(=O)CC(=O)c1ccccc1`, the TGI falls from > 100 µM to 10.4 µM.

`CCOC(CCNCC(OCC)OCC)OCC` and `O=C(O/N=C1/CCCC/C1=C\c1ccccc1)c1ccccc1` cannot be ordered by TGI: > 10 µM for the first, > 100 µM for the second.

Compound `CCC[CH2][Ge]([CH2]CCC)([CH2]CCC)[O]C(=O)CC(=O)c1ccccc1` has a GI50 of 0.316 µM.

test system: TK-10 renal; assay: NCI-60 cell line screen, 48 h

Going from `COc1cc(C2c3cc4c(cc3OC(N3CCCC3)C2C)OCO4)cc(OC)c1O` (stereo not drawn) to `CC1=CC(/C=C(\C)CCCc2ccoc2)C2(OC(=O)C(C)=C2O)[C@H]2C1CC[C@@H]2C` (stereo partly drawn), the TGI rises from 58.6 µM to > 100 µM.

Compared with `COC(=O)C1=C(C)N(NC(=O)c2ccccc2)C(C)(O)C12CCOC2=O` (stereo not drawn), `CCC[CH2][Ge]([CH2]CCC)([CH2]CCC)[O]C(=O)CC(=O)c1ccccc1` is lower in TGI: > 100 µM for the first, 21 µM for the second.

`CCOC(CCNCC(OCC)OCC)OCC` and `O=C(O/N=C1/CCCC/C1=C\c1ccccc1)c1ccccc1` cannot be ordered by TGI: > 10 µM for the first, > 100 µM for the second.

`CCC[CH2][Ge]([CH2]CCC)([CH2]CCC)[O]C(=O)CC(=O)c1ccccc1` showed a GI50 of 7.03 µM.

test system: LOX IMVI melanoma; assay: NCI-60 cell line screen, 48 h

Compared with `COc1cc(C2c3cc4c(cc3OC(N3CCCC3)C2C)OCO4)cc(OC)c1O` (stereo not drawn), `CC1=CC(/C=C(\C)CCCc2ccoc2)C2(OC(=O)C(C)=C2O)[C@H]2C1CC[C@@H]2C` (stereo partly drawn) is lower in TGI: > 100 µM for the first, 59.3 µM for the second.

Going from `COC(=O)C1=C(C)N(NC(=O)c2ccccc2)C(C)(O)C12CCOC2=O` (stereo not drawn) to `CCC[CH2][Ge]([CH2]CCC)([CH2]CCC)[O]C(=O)CC(=O)c1ccccc1`, the TGI falls from > 100 µM to 1.72 µM.

`CCOC(CCNCC(OCC)OCC)OCC` and `O=C(O/N=C1/CCCC/C1=C\c1ccccc1)c1ccccc1` cannot be ordered by TGI: > 10 µM for the first, 88.8 µM for the second.

`CCC[CH2][Ge]([CH2]CCC)([CH2]CCC)[O]C(=O)CC(=O)c1ccccc1` gave a GI50 of 0.313 µM.

test system: 786-0 renal; assay: NCI-60 cell line screen, 48 h

Going from `COc1cc(C2c3cc4c(cc3OC(N3CCCC3)C2C)OCO4)cc(OC)c1O` (stereo not drawn) to `CC1=CC(/C=C(\C)CCCc2ccoc2)C2(OC(=O)C(C)=C2O)[C@H]2C1CC[C@@H]2C` (stereo partly drawn), the TGI falls from 59.5 µM to 32.2 µM (1.8-fold).

Going from `COC(=O)C1=C(C)N(NC(=O)c2ccccc2)C(C)(O)C12CCOC2=O` (stereo not drawn) to `O=C(O/N=C1/CCCC/C1=C\c1ccccc1)c1ccccc1`, the TGI rises from 2.68 µM to > 100 µM.

With `CCOC(CCNCC(OCC)OCC)OCC` the TGI was > 10 µM.

test system: SF-268 CNS; assay: NCI-60 cell line screen, 48 h

`COc1cc(C2c3cc4c(cc3OC(N3CCCC3)C2C)OCO4)cc(OC)c1O` (stereo not drawn) and `COC(=O)C1=C(C)N(NC(=O)c2ccccc2)C(C)(O)C12CCOC2=O` (stereo not drawn) cannot be ordered by TGI: > 100 µM for the first, > 100 µM for the second.

Going from `CCC[CH2][Ge]([CH2]CCC)([CH2]CCC)[O]C(=O)CC(=O)c1ccccc1` to `O=C(O/N=C1/CCCC/C1=C\c1ccccc1)c1ccccc1`, the TGI rises from 21.6 µM to > 100 µM.

For `CCOC(CCNCC(OCC)OCC)OCC`, the TGI was > 10 µM.

`CCC[CH2][Ge]([CH2]CCC)([CH2]CCC)[O]C(=O)CC(=O)c1ccccc1` gave a GI50 of 4.57 µM.

test system: COLO 205 colon; assay: NCI-60 cell line screen, 48 h

`COc1cc(C2c3cc4c(cc3OC(N3CCCC3)C2C)OCO4)cc(OC)c1O` (stereo not drawn) and `CC1=CC(/C=C(\C)CCCc2ccoc2)C2(OC(=O)C(C)=C2O)[C@H]2C1CC[C@@H]2C` (stereo partly drawn) are within 1.5-fold of each other in TGI: 63 µM for the first, 47 µM for the second.

Going from `COC(=O)C1=C(C)N(NC(=O)c2ccccc2)C(C)(O)C12CCOC2=O` (stereo not drawn) to `CCC[CH2][Ge]([CH2]CCC)([CH2]CCC)[O]C(=O)CC(=O)c1ccccc1`, the TGI falls from > 100 µM to 13.3 µM.

`CCOC(CCNCC(OCC)OCC)OCC` and `O=C(O/N=C1/CCCC/C1=C\c1ccccc1)c1ccccc1` cannot be ordered by TGI: > 10 µM for the first, > 100 µM for the second.

Work on `CCC[CH2][Ge]([CH2]CCC)([CH2]CCC)[O]C(=O)CC(=O)c1ccccc1` yielded a GI50 of 1.55 µM.

test system: HOP-18 NSCLC; assay: NCI-60 cell line screen, 48 h

Compared with `COC(=O)C1=C(C)N(NC(=O)c2ccccc2)C(C)(O)C12CCOC2=O` (stereo not drawn), `CCC[CH2][Ge]([CH2]CCC)([CH2]CCC)[O]C(=O)CC(=O)c1ccccc1` is lower in TGI: > 100 µM for the first, 22.7 µM for the second.

Going from `CC1=CC(/C=C(\C)CCCc2ccoc2)C2(OC(=O)C(C)=C2O)[C@H]2C1CC[C@@H]2C` (stereo partly drawn) to `O=C(O/N=C1/CCCC/C1=C\c1ccccc1)c1ccccc1`, the TGI rises from 82.6 µM to > 100 µM.

`CCC[CH2][Ge]([CH2]CCC)([CH2]CCC)[O]C(=O)CC(=O)c1ccccc1` was tested, and the GI50 was 10.8 µM.

test system: DMS 114 small cell lung; assay: NCI-60 cell line screen, 48 h

First: COC(=O)C1=C(C)N(NC(=O)c2ccccc2)C(C)(O)C12CCOC2=O (stereo not drawn)
Second: CCC[CH2][Ge]([CH2]CCC)([CH2]CCC)[O]C(=O)CC(=O)c1ccccc1
The TGI of the first is higher: > 100 µM for the first, 3.32 µM for the second.

First: CC1=CC(/C=C(\C)CCCc2ccoc2)C2(OC(=O)C(C)=C2O)[C@H]2C1CC[C@@H]2C (stereo partly drawn)
Second: O=C(O/N=C1/CCCC/C1=C\c1ccccc1)c1ccccc1
The TGI of the first is 2.3-fold higher: 72.2 µM for the first, 31.3 µM for the second.

`CCC[CH2][Ge]([CH2]CCC)([CH2]CCC)[O]C(=O)CC(=O)c1ccccc1` showed a GI50 of 0.0424 µM.

test system: UACC-62 melanoma; assay: NCI-60 cell line screen, 48 h

`COc1cc(C2c3cc4c(cc3OC(N3CCCC3)C2C)OCO4)cc(OC)c1O` (stereo not drawn) was tested, and the TGI was > 61.6 µM.
